Consider twelve compounds from ChEMBL document CHEMBL5465560, “Selectivity Literature for EUbOPEN Chemogenomic Library” (2024).

Data set [1] concerns the target T1, Phosphorylase b kinase gamma catalytic chain, liver/testis isoform (Homo sapiens) (UniProt P15735).
T1 sequence (whole entry): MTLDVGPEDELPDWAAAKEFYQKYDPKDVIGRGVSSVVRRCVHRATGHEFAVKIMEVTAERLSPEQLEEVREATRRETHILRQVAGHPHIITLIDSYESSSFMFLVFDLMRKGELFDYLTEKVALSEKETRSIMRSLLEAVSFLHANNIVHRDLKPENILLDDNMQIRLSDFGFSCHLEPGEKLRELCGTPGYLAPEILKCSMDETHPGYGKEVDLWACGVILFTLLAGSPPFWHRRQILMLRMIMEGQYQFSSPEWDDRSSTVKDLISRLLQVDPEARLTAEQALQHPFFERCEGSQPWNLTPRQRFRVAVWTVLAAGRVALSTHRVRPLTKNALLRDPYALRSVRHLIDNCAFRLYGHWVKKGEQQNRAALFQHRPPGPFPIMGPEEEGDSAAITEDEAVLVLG
As to the kind of experiment: Selectivity interaction (Kinase panel (Z-LYTE Assay)) EUB0001632a PHKG2. The note with it: at 10 µM.

The target in data set [2] is SRSF protein kinase 2 (Homo sapiens) (UniProt P78362). As to the kind of experiment: Selectivity interaction (KinomeScan (DiscoverX)) EUB0000595a SRPK2. The note with it: at 10 µM.
Sequence of SRSF protein kinase 2 (Homo sapiens) (P78362 whole entry, looked up): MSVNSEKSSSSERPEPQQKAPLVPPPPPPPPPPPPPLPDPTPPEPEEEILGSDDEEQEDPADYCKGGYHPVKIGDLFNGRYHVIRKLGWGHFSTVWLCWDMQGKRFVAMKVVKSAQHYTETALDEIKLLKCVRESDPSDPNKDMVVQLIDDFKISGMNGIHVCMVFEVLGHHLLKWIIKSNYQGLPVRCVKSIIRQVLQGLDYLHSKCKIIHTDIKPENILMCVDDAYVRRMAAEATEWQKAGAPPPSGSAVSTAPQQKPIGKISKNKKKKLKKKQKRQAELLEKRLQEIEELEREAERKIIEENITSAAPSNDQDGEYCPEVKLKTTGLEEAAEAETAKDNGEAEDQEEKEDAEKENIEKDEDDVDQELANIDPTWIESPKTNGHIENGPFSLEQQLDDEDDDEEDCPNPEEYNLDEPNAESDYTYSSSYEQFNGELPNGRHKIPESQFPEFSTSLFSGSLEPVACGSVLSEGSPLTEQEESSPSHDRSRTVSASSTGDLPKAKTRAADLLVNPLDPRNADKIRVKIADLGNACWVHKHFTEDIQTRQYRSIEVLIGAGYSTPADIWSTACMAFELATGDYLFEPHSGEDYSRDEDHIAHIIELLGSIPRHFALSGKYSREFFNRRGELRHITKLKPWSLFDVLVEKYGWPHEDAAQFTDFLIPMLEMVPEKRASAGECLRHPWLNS
Data set [3] addresses Protein kinase C eta type (Homo sapiens) (UniProt P24723). The note with it: at 10 µM.
For data set [4], the target named is Mitogen-activated protein kinase 4 (Homo sapiens) (UniProt P31152). The note with it: at 10 µM.
In data set [5] the target is Calcium/calmodulin-dependent protein kinase type 1D (Homo sapiens) (UniProt Q8IU85). The data set is described as follows: Selectivity interaction (ActivX KiNativ screen (kinase selectivity in THP-1 cell lysates)) EUB0000639a CAMK1D. It counts as subcellular. Conditions: lysate, at 5 µM.
Sequence of Calcium/calmodulin-dependent protein kinase type 1D (Homo sapiens) (Q8IU85 whole entry, looked up): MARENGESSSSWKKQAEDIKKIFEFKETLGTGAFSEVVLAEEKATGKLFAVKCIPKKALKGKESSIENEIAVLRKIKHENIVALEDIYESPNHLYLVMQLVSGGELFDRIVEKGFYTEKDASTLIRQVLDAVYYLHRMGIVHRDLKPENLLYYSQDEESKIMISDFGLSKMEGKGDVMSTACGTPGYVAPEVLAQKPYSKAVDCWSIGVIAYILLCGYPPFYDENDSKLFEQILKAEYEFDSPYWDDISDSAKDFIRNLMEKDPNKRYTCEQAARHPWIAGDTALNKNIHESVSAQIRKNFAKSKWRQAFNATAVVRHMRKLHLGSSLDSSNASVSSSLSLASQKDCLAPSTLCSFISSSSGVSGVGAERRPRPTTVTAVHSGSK
Data set [6] shares this target. The data set is described as follows: Selectivity interaction (Kinase panel (Invitrogen)) EUB0000639a CAMK1D. The note with it: at 200 nM.
The target in data set [7] is Misshapen-like kinase 1 (Homo sapiens, UniProt Q8N4C8). The data set is described as follows: Selectivity interaction (Kinase panel (Invitrogen)) EUB0000639a MINK1. Conditions: at 200 nM.
Data set [8] addresses DNA (cytosine-5)-methyltransferase 3A (Homo sapiens) (UniProt Q9Y6K1). The note with it: at 10 µM.
Data set [9] concerns the target Serine/threonine-protein kinase SIK3 (Homo sapiens) (UniProt Q9Y2K2). The data set is described as follows: Selectivity interaction (KinomeScan (DiscoverX)) EUB0000045b SIK3.
Data set [10] concerns Epidermal growth factor receptor (Homo sapiens), P00533 [UNDEFINED MUTATION]. As to the kind of experiment: Selectivity interaction (KinomeScan (DiscoverX)) EUB0000045b EGFR. Conditions: at 10 µM.
For data set [11], the target named is Ephrin type-A receptor 5 (Homo sapiens) (UniProt P54756). As to the kind of experiment: Selectivity interaction (KinomeScan (DiscoverX)) EUB0000655a EPHA5. Conditions: at 10 µM.
Sequence of Ephrin type-A receptor 5 (Homo sapiens) (P54756 whole entry, canonical isoform): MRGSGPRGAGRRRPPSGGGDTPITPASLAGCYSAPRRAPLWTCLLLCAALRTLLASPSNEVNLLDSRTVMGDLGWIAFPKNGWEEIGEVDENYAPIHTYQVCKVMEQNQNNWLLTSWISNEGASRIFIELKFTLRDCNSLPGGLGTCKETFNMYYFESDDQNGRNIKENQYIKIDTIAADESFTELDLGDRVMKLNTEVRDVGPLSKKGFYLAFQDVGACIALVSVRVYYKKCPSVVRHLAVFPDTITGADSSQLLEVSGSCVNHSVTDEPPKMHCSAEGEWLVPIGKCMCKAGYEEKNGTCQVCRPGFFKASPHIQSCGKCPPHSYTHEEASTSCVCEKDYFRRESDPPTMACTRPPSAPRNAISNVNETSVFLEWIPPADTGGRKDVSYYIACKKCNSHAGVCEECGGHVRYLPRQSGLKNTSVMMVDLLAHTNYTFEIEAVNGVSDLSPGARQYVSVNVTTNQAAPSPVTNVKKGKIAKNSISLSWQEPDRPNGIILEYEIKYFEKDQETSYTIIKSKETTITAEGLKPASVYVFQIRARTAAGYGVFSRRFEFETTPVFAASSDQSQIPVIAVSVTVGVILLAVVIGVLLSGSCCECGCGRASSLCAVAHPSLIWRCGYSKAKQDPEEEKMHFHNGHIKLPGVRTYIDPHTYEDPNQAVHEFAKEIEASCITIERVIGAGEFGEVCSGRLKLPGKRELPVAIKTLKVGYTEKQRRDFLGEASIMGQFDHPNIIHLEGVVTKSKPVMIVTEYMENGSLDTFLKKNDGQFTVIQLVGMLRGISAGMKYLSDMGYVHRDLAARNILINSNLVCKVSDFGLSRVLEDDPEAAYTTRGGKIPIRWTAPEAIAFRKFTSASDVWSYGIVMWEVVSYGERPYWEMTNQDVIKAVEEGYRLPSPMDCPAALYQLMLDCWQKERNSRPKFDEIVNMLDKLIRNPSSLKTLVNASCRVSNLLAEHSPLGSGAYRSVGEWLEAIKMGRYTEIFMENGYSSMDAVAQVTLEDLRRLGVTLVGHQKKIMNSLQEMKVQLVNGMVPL
Data set [12] addresses T2, Casein kinase I isoform alpha-like (Homo sapiens) (UniProt Q8N752).
T2 sequence (whole entry): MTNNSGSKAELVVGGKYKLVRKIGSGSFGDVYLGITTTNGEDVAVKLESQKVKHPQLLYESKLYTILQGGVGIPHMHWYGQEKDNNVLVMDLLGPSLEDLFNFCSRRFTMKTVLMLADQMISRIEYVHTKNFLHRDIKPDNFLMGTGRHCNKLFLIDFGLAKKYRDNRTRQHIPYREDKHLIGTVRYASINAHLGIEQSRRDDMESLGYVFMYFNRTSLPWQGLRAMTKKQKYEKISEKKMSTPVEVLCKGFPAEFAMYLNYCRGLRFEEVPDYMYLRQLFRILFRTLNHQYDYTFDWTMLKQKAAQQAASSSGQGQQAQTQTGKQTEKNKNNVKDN
The data set is described as follows: Selectivity interaction (KinomeScan (DiscoverX)) EUB0001079a CSNK1A1L. The note with it: at 1 µM.

Data set [13] addresses Alpha-1D adrenergic receptor (Homo sapiens) (UniProt P25100). The data set is described as follows: Selectivity interaction (GPCR panel (PDSP screen)) EUB0001079a ADRA1D. Conditions: at 10 µM.
The target of data set [14] is OATP1B1 (SLCO1B1) (Homo sapiens, UniProt Q9Y6L6). The data set is described as follows: Selectivity interaction (Panel of kinases, GPCRs, ion channels and transporters (enzymatic assay)) EUB0000266bCl SLCO1B1. Conditions: not told.
Data set [15] addresses T3, Serine/threonine-protein kinase 4 (Homo sapiens) (UniProt Q13043).
T3 sequence (whole entry): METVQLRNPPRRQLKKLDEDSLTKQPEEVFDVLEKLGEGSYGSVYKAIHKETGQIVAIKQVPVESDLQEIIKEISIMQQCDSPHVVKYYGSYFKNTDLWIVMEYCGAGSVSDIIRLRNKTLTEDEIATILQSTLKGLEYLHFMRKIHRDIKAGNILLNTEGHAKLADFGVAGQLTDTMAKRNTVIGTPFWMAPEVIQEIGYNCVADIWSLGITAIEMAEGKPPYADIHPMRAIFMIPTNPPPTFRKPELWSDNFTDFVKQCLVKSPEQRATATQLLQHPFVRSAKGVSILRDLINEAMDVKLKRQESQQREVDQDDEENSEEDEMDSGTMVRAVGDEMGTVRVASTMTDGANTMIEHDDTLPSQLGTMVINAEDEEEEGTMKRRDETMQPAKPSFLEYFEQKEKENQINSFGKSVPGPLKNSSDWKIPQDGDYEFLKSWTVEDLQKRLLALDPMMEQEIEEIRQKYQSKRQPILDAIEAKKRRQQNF
As to the kind of experiment: Selectivity interaction (KinomeScan (DiscoverX)) EUB0000229b STK4. The note with it: at 10 µM.

Data set [16] concerns the target T4, Mixed lineage kinase domain-like protein (Homo sapiens) (UniProt Q8NB16).
T4 sequence (whole entry): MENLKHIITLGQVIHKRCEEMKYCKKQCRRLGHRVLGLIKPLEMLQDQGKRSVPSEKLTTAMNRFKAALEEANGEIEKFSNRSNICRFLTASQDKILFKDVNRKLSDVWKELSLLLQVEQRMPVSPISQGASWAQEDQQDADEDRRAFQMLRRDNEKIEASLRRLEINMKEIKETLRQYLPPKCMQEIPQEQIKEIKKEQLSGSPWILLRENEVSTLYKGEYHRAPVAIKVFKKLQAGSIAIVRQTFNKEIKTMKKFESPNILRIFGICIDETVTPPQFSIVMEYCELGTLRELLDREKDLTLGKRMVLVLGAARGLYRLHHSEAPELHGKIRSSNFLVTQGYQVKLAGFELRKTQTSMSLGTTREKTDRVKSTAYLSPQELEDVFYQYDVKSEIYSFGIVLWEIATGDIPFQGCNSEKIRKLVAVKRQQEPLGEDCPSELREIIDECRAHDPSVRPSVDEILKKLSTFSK
The data set is described as follows: Selectivity interaction (Kinase panel (KiNativ target engagement assay in Jurkat cells)) EUB0001635a MLKL. It counts as cell-based. The note with it: at 1 µM.

Data set [17] has as its target Phosphatidylinositol 4-kinase beta (Homo sapiens, UniProt Q9UBF8). As to the kind of experiment: Selectivity interaction (Kinase panel (KiNativ target engagement assay in Jurkat cells)) EUB0001635a PI4KB. It counts as cell-based. Conditions: Selectivity number of off-targets 0.0, Selectivity number of targets 233.0, Source Knowledge https://www.sciencedirect.com/science/article/pii/S2451945619300674?via%3Dihub, at 1 µM.

Sequence of Serine/threonine-protein kinase SIK3 (Homo sapiens) (Q9Y2K2 whole entry, looked up): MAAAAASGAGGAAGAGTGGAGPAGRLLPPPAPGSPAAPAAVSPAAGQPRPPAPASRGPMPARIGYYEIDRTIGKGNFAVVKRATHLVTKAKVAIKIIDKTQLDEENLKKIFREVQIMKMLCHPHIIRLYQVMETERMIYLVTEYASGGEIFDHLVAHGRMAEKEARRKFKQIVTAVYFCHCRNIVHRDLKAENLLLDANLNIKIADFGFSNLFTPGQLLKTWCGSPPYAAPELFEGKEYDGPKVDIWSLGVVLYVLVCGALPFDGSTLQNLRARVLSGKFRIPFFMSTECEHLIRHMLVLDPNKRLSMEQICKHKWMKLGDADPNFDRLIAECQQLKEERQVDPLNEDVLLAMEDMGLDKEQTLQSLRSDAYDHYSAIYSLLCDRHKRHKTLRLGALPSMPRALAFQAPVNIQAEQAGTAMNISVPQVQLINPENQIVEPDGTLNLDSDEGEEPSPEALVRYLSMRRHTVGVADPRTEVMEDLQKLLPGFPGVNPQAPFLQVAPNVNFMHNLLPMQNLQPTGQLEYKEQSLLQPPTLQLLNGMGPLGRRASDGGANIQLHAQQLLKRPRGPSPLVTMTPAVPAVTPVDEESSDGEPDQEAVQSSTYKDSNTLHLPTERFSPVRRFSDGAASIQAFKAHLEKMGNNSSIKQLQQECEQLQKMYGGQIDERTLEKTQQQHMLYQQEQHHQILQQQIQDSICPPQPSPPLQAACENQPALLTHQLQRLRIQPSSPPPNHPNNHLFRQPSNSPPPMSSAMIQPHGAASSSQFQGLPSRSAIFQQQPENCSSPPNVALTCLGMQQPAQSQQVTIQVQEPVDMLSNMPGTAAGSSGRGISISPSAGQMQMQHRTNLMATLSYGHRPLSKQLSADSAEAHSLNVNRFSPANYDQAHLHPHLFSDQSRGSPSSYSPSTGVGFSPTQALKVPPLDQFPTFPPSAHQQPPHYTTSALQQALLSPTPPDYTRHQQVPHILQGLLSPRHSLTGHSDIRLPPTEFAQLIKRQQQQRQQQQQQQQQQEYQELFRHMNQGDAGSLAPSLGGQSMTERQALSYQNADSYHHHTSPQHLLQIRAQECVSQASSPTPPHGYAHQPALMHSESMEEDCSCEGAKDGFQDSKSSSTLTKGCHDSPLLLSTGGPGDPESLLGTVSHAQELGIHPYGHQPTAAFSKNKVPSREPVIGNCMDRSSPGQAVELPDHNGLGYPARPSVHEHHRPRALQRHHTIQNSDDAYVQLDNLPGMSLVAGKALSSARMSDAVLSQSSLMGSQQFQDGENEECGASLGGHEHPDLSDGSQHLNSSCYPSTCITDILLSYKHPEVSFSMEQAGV
Sequence of Alpha-1D adrenergic receptor (Homo sapiens) (P25100 whole entry): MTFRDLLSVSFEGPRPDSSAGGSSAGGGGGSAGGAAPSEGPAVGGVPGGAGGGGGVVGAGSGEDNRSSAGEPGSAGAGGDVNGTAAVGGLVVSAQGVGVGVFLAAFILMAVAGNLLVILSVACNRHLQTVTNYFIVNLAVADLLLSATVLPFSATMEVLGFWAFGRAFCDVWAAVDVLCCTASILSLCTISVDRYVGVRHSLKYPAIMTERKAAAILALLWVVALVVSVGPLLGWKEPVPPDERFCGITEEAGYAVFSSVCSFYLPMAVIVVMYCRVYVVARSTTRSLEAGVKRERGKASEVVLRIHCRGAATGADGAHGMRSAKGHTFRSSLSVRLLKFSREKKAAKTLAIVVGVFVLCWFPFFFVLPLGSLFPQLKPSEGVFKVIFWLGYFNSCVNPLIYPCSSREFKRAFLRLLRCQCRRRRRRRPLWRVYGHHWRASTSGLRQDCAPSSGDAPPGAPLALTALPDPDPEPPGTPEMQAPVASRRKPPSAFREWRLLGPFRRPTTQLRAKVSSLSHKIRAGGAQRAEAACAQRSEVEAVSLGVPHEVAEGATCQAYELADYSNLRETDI
Sequence of Phosphatidylinositol 4-kinase beta (Q9UBF8 2-816 limits assumed): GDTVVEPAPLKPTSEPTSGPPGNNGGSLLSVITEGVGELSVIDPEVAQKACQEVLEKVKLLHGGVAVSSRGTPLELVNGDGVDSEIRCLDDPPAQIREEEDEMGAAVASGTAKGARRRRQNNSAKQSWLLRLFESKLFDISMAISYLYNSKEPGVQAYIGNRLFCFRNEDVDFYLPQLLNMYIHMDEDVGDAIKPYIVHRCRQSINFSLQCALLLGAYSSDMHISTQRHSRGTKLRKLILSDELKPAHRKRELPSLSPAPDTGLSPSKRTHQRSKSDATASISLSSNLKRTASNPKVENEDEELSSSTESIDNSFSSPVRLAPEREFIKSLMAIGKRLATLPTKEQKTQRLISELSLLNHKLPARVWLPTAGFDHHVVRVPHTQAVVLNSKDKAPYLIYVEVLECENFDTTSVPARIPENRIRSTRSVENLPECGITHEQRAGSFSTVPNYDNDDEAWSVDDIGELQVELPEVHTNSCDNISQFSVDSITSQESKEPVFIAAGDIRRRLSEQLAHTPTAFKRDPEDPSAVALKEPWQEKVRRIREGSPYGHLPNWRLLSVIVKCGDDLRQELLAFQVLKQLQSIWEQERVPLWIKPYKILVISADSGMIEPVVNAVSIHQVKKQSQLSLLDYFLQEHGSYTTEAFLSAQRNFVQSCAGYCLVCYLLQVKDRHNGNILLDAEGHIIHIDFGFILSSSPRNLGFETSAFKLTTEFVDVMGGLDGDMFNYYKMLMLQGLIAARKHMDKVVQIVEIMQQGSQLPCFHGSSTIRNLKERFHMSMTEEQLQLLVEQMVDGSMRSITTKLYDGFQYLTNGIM

As to `Cn1cc(-n2cnc3c(NCc4nc5cc(Cl)c(Cl)cc5[nH]4)nc(N4CCOCC4)nc32)cn1`, the % of control in [1] was 4.25%.

In [2], `COCC(=O)NC/C=C/c1ccc2ncnc(Nc3ccc(Oc4ccc(C)nc4)c(C)c3)c2c1` [CP-724714] returned a % of control of 92%.

Take `CCN(CC)CCCCNc1ncc2cc(-c3cc(OC)cc(OC)c3)c(NC(=O)NC(C)(C)C)nc2n1`: the % of control in data set [3] turned out to be 100%.

In turn, `Cc1cc([C@@H](C)Nc2ccccc2C(=O)O)c2nc(N3CCOCC3)cc(=O)n2c1` [AZD-6482] gave a % of control in data set [4] of 98%.

For the compound `CC[C@@H]1[C@H](F)C(=O)N[C@@H]1COc1nccc2cc(C(N)=O)c(OC)cc12` [ZIMLOVISERTIB], the % of inhibition came to 21.3% in data set [5], 2.36% in data set [6] and 18.8% in data set [7].

Regarding `CNCCN1CCC(c2cc(CN(C)C(=O)c3cccc(Oc4ccccc4)c3)ccn2)CC1`, the % activity in data set [8] was over 90%.

As to `C=CC(=O)Nc1cc(-n2c(=O)ccc3cnc4ccc(-c5ccc(NS(C)(=O)=O)cc5)cc4c32)ccc1C`, the % of control is 100% in data set [9] (at 1 µM), 100% in data set [9] (at 10 µM) and 75% in [10].

`CN(C)CCOc1ccc(-c2nc(-c3ccncc3)c(-c3ccc4c(c3)CC/C4=N\O)[nH]2)cc1`: in data set [11], the % of control stood at 99%.

As for `Nc1cnc(N2CCc3cc(S(=O)(=O)Nc4c(F)cc(Cl)cc4F)cc(N4CCCC4=O)c32)nc1` [TP-020n], the % of control in data set [12] was 100%. In addition, the % of inhibition in data set [13] is -2.31%.

The compound `CCn1c(-c2nc3cc(C(=O)N4CCCC(N)C4)ccc3n2C)cc2ccccc21` (stereo not drawn) had an XC50 in [14] of over 50.1 µM.

Compound `COc1cc(N(C)c2ccnc3ccc(C(F)(F)F)cc23)cc(OC)c1OC` came in with a % binding in [15] of 99%.

As for `C=CC(=O)Nc1ccc(C(=O)Nc2[nH]nc3c2CN(C(=O)N[C@H](CN(C)C)c2ccccc2)C3(C)C)cc1`, the % of engagement in data set [16] was 5.6%; in [17], -4.1%.
